# Experiments:
# [1] = target: Serine/threonine-protein kinase B-raf (Homo sapiens, UniProt P15056); experiment: Inhibition of wild type BRAF (unknown origin)
# HCT-116 [2] = experiment: cells; conditions: Homo sapiens
# Histone deacetylase 1 [3] = target: T1, Histone deacetylase 1 (Homo sapiens, UniProt Q13547); experiment: Inhibition of HDAC1 (unknown origin)
# [4] = target: T2, Protein deacetylase HDAC6 (Homo sapiens, UniProt Q9UBN7); experiment: Inhibition of HDAC6 (unknown origin)
# T2 sequence (Q9UBN7 whole entry): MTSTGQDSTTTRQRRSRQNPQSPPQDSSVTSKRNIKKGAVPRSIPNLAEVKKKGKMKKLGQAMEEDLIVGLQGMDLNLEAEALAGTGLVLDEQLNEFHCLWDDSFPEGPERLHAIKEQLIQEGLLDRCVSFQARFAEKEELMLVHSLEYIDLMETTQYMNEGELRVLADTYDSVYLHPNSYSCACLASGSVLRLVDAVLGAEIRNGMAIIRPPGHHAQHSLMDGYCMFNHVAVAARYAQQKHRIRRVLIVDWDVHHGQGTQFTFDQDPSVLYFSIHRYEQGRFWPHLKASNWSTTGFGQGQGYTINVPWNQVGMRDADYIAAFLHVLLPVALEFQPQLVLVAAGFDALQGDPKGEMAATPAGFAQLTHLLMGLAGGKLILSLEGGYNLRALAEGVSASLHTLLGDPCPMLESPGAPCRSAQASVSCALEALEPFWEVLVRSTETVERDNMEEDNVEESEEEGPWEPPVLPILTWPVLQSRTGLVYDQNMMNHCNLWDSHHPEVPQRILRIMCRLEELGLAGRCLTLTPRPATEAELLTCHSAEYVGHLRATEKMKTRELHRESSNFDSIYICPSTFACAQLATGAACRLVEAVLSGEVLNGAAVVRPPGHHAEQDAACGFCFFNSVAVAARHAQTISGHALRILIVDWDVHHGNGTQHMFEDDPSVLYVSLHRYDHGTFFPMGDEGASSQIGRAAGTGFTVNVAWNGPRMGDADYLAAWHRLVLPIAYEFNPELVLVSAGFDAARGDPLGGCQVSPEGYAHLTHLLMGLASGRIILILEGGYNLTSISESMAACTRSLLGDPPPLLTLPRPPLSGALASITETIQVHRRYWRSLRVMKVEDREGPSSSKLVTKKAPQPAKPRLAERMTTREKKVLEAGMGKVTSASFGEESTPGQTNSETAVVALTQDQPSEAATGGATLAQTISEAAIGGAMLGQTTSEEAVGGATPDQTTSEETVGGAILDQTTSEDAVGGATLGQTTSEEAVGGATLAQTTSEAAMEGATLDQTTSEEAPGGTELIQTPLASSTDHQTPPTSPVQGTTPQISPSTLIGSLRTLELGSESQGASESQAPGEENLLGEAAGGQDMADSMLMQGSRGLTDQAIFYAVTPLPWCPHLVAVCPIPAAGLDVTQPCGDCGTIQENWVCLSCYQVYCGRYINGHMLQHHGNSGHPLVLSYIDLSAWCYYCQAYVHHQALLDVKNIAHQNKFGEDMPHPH
# HeLa [5] = experiment: Antiproliferative activity against human HeLa cells assessed as cell growth inhibition by SRB assay; format: functional
# [6] = target: T2, Protein deacetylase HDAC6; experiment: Inhibition of HDAC6 in human HeLa cells incubated for 72 hrs by ELISA; format: cell-based
# MCF7 [7] = experiment: Antiproliferative activity against human MCF7 cells assessed as cell growth inhibition by SRB assay; format: functional
# Histone deacetylase 1 [8] = target: T1, Histone deacetylase 1; experiment: Inhibition of HDAC1 in human HeLa cells incubated for 72 hrs by ELISA; format: cell-based
# K562 [9] = experiment: Antiproliferative activity against human K562 cells assessed as cell growth inhibition by SRB assay; format: functional
# A549 [10] = experiment: Antiproliferative activity against human A549 cells assessed as cell growth inhibition by SRB assay; format: functional
# SCC-25 = experiment: Antiproliferative activity against human SCC-25 cells; format: functional, cell-based
# MCF7 [11] = experiment: cells; conditions: Homo sapiens
# [12] = Cytotoxicity against HEK293T cells; format: toxicity, cell-based, HEK-293T; conditions: human
# U-87 MG = experiment: Antiproliferative activity against human U-87 MG cells; format: functional, cell-based, U-87MG ATCC
# [13] = Cytotoxicity against human L02 cells; format: toxicity, cell-based
# [14] = Cytotoxicity against human BEAS-2B cells; format: toxicity, cell-based
# HepG2 [15] = experiment: cells; format: functional, cell-based; conditions: Homo sapiens, HepG2, 72 h
# Huh-7 = experiment: cells; format: functional, cell-based; conditions: Homo sapiens, Huh-7, 72 h
# HCT-116 [16] = experiment: cells; format: functional, cell-based; conditions: Homo sapiens, HCT-116, 72 h
# 518A2 = experiment: cells; format: functional, cell-based; conditions: Homo sapiens, 518A2, 72 h
# HCT 116 TP53(-/-) = experiment: cells; format: functional, cell-based; conditions: Homo sapiens, 72 h
# U-937 = experiment: cells; format: functional, cell-based; conditions: Homo sapiens, U-937, 72 h
# Description: Antiproliferative activity against human U-937 cells assessed as inhibition of cell growth measured after 72 hrs by CCK-8 assay
# FaDu = experiment: cells; format: functional, cell-based; conditions: Homo sapiens, 72 h
# Description: Antiproliferative activity against human FaDu cells assessed as inhibition of cell growth measured after 72 hrs by CCK-8 assay
# K562 [17] = experiment: cells; format: functional, cell-based; conditions: Homo sapiens, K562, 72 h
# Description: Antiproliferative activity against human K562 cells assessed as inhibition of cell growth measured after 72 hrs by CCK-8 assay
# HepG2 [18] = experiment: cells; format: functional, cell-based; conditions: Homo sapiens, HepG2, 72 h; remark: listed apart in the source
# A549 [19] = experiment: cells; format: functional, cell-based; conditions: Homo sapiens, A549, 72 h
# Description: Antiproliferative activity against human A549 cells assessed as inhibition of cell growth measured after 72 hrs by CCK-8 assay
# MDA-MB-231 = experiment: cells; format: functional, cell-based; conditions: Homo sapiens, MDA-MB-231, 72 h
# Description: Antiproliferative activity against human MDA-MB-231 cells assessed as inhibition of cell growth measured after 72 hrs by CCK-8 assay
# MDA-MB-468 = experiment: cells; format: functional, cell-based; conditions: Homo sapiens, MDA-MB-468, 72 h
# Description: Antiproliferative activity against human MDA-MB-468 cells assessed as inhibition of cell growth measured after 72 hrs by CCK-8 assay
# C6 = experiment: cells; format: functional, cell-based; conditions: Rattus norvegicus, C6, 72 h
# Description: Antiproliferative activity against rat C6 cells assessed as inhibition of cell growth measured after 72 hrs by CCK-8 assay
# U-266 = experiment: cells; format: functional, cell-based; conditions: Homo sapiens, U-266, 72 h
# Description: Antiproliferative activity against human U-266 cells assessed as inhibition of cell growth measured after 72 hrs by CCK-8 assay
# A2780 = experiment: cells; format: functional, cell-based; conditions: Homo sapiens, A2780, 72 h
# Description: Antiproliferative activity against human A2780 cells assessed as inhibition of cell growth measured after 72 hrs by CCK-8 assay
# HCT-116 [20] = experiment: Antiproliferative activity against human HCT-116 cells measured after 24 hrs by MTT assay; format: functional, cell-based; conditions: HCT-116, 24 h
# MCF7 [21] = experiment: Antiproliferative activity against human MCF7 cells measured after 24 hrs by MTT assay; format: functional, cell-based; conditions: MCF7, 24 h
# HepG2 [22] = experiment: Antiproliferative activity against human HepG2 cells measured after 24 hrs by MTT assay; format: functional, cell-based; conditions: HepG2, 24 h
# HeLa [23] = experiment: Antiproliferative activity against human HeLa cells measured after 24 hrs by MTT assay; format: functional, cell-based
# T1 sequence (Q13547 whole entry): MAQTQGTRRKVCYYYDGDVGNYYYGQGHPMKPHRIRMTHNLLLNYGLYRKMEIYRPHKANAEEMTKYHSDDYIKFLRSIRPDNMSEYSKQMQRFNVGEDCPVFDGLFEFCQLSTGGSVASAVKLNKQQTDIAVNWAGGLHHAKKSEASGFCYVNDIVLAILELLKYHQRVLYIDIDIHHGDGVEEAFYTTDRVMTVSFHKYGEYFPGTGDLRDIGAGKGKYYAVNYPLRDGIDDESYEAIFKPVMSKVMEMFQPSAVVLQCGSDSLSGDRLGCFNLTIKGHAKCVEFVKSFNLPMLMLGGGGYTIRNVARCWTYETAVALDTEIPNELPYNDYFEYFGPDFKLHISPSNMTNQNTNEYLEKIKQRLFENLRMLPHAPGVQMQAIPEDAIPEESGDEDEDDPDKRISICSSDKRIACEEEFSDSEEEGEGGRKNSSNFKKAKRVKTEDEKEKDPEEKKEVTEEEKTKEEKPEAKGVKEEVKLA
# Sequence of Serine/threonine-protein kinase B-raf (P15056 whole entry): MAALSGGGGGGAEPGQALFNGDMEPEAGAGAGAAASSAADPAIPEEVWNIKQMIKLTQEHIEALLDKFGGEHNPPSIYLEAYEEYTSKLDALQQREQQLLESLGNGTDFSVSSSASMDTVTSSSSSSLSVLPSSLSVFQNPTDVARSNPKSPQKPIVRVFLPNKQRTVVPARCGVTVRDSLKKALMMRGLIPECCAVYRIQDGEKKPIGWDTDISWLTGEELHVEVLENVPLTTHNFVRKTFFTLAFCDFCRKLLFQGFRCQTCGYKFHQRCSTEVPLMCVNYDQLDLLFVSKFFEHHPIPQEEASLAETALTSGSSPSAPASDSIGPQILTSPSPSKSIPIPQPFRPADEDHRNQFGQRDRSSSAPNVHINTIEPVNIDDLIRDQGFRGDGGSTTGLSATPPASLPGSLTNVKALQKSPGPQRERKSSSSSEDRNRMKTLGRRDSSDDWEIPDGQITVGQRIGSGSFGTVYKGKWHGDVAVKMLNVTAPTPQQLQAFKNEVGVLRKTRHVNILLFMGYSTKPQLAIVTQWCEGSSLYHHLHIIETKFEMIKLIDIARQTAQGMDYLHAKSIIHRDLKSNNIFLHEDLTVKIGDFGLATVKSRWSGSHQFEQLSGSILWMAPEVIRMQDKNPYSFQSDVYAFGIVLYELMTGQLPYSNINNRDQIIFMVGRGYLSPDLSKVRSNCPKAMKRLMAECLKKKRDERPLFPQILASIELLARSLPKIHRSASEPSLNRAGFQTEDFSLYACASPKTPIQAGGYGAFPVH
structure (smiles),measurement,setting,value
CC(C)(C)c1nc(-c2cccc(NS(=O)(=O)c3c(F)cccc3F)c2F)c(-c2ccnc(NCCCCCCC(=O)NO)n2)s1,IC50,[1],1.71 nM
same,IC50,HCT-116 [2],310 nM
same,IC50,Histone deacetylase 1 [3],15.6 nM
same,IC50,[4],15.6 nM
CC(=O)c1c(-c2ccc([N+](=O)[O-])cc2)cn(CCCCCC(=O)NO)c1C,GI50,HeLa [5],< 10000 nM
same,IC50,[6],52 nM
same,GI50,MCF7 [7],< 10000 nM
same,IC50,Histone deacetylase 1 [8],52 nM
same,GI50,K562 [9],< 10000 nM
same,GI50,A549 [10],< 10000 nM
O=C(NO)c1c(Cl)cc2c(c1Cl)CCN(C(=O)c1cc3ccccc3[nH]1)C2,IC50,SCC-25,3110 nM
same,IC50,[4],0.2 nM
same,IC50,MCF7 [11],3110 nM
same,IC50,[12],56900 nM
same,IC50,U-87 MG,3110 nM
CCCOc1ccc2c(OCCCCCCCC(=O)NO)cc(=O)oc2c1,IC50,[13],> 50000 nM
same,IC50,[14],> 50000 nM
COc1ccc(-c2cn(CCCCCC(=O)NO)c(C)c2C(C)=O)cc1,GI50,HeLa [5],< 10000 nM
same,IC50,[6],52 nM
same,GI50,MCF7 [7],< 10000 nM
same,IC50,Histone deacetylase 1 [8],52 nM
same,GI50,K562 [9],< 10000 nM
same,GI50,A549 [10],< 10000 nM
COc1ccc(-c2ocnc2-c2cc(OC)c(OC)c(OC)c2)cc1OCCCCCC(=O)NO,IC50,HepG2 [15],610 nM
same,IC50,Huh-7,610 nM
same,IC50,[4],~1000 nM
same,IC50,HCT-116 [16],610 nM
same,IC50,518A2,610 nM
same,IC50,HCT 116 TP53(-/-),610 nM
COc1cc(Nc2nc(N3CCN(c4ncc(C(=O)NO)cn4)CC3)ncc2Cl)cc(OC)c1,IC50,U-937,280 nM
same,IC50,FaDu,280 nM
same,IC50,K562 [17],280 nM
same,IC50,HepG2 [18],280 nM
same,IC50,A549 [19],280 nM
same,IC50,MDA-MB-231,280 nM
same,IC50,MDA-MB-468,280 nM
same,IC50,C6,280 nM
same,IC50,U-266,280 nM
same,IC50,A2780,280 nM
CCCC(CCC)C(=O)O [VALPROIC ACID],IC50,HCT-116 [20],4660 nM
same,IC50,MCF7 [21],4660 nM
same,IC50,HepG2 [22],4660 nM
same,IC50,HeLa [23],4660 nM
